Results reported in ChEMBL document CHEMBL1201862, “PubChem BioAssay data set” (2004).
The source made the active and inactive calls.

Assays:
cells [1] = experiment: cells
Major prion protein = Major prion protein (Homo sapiens, UniProt P04156); assay type: functional, cell-based
Cytochrome P450 3A4 = Cytochrome P450 3A4 (Homo sapiens, UniProt P08684); details: Potency;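 also: confirmatory qHTS run detecting inhibitors and substrates of CYP3A4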
[2] = viability of HCT116 lacking mutant beta-catenin – cell-based, human colon tumor, dose response (AID 1045); assay type: functional;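 also: HCT116 colon tumor cells with beta catenin knocked out; cells exposed to compound for 60 hours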
[3] = viability of PTEN-deleted HCT116 cells – cell-based, HCT116 PTEN knockout, dose response (AID 1047); assay type: functional;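 also: HCT116 colon tumor cells with PTEN knocked out; cells exposed to compound for 60 hours before readout; potency for loss of cell viability measured by luminescence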
[4] = reduction of Shn3 3'UTR-driven luciferase in osteoblasts – cell-based, Clone20 osteoblasts, firefly luciferase, cherry-picked, dose response (AID 624132); assay type: functional;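 also: firefly luciferase luminescence from reporter carrying the Shn3 3'UTR in osteoblasts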
[5] = loss of viability in HepG2 cells – cell-based, CellTiter-Glo, cherry-picked, cytotoxicity control for Shn3 inhibitor project, dose response (AID 624134); assay type: functional
[6] = blockers of HIV-1 ZM109 envelope-driven cell-cell fusion – HeLa effector, CEM target cells, luciferase, cherry-pick, dose response (AID 652058); assay type: functional, cell-based;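 also: luciferase signal from HIV-1 Env mediated cell-cell fusion of effector and target cells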
[7] = blockers of HIV-1 envelope-mediated cell-cell fusion – cherry-pick, dose response (AID 652057); assay type: functional, cell-based
[8] = non-specific 3'UTR reporter inhibition in Clone20-Shn3RL – cell-based, Renilla luciferase, cherry-picked, counter-screen for Shn3 inhibitor project, dose response (AID 624133); assay type: functional
Beta-galactosidase = Beta-galactosidase (Escherichia coli, UniProt Q8VNN2); experiment: PubChem AID 485352; assay type: functional
[9] = molecular target: T1, Type-1 angiotensin II receptor (Homo sapiens, UniProt P30556); experiment: antagonism of angiotensin II type 1 receptor – cell-based, uHTS hits, selectivity assay for APJ receptor antagonist project, dose response (AID 463214); assay type: functional;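 also: antagonist potency against angiotensin II stimulated AT1 response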
T1 sequence (P30556 whole entry): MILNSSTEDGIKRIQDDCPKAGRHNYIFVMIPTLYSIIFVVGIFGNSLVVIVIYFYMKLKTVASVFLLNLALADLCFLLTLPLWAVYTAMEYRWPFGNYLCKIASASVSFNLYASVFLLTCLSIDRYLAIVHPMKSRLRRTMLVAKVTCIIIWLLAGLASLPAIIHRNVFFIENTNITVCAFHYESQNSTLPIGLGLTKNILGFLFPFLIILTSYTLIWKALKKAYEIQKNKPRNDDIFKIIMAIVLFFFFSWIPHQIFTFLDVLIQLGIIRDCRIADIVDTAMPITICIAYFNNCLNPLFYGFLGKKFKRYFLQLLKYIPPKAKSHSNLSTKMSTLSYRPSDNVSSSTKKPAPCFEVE

Streptococcus = experiment: GAS UMAA2166 growth inhibition – luminescence, BacTiterGlo, counter-screen for streptokinase expression inhibitor project, dose response (AID 1915); assay type: functional, organism-based;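 also: potency for reduction of bacterial viability or growth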
[10] = tested on: Streptococcus sp. 'group A'; experiment: Streptococcus pyogenes SK(-)GAS viability under kanamycin – luminescence, BacTiterGlo, confirmation, counter-screen for streptokinase expression inhibitor project, dose response (AID 1900); assay type: functional, organism-based
Streptokinase A = molecular target: T2, Streptokinase A (Streptococcus pyogenes serotype M1, UniProt P10520); experiment: viability-normalized secreted streptokinase activity reduction – plasminogen activation absorbance, OD405, dose response (AID 1914); assay type: functional, Streptococcus pyogenes M1 GAS;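 also: secreted streptokinase activity via plasminogen activation per viability signal from cell pellet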
T2 sequence (P10520 whole entry): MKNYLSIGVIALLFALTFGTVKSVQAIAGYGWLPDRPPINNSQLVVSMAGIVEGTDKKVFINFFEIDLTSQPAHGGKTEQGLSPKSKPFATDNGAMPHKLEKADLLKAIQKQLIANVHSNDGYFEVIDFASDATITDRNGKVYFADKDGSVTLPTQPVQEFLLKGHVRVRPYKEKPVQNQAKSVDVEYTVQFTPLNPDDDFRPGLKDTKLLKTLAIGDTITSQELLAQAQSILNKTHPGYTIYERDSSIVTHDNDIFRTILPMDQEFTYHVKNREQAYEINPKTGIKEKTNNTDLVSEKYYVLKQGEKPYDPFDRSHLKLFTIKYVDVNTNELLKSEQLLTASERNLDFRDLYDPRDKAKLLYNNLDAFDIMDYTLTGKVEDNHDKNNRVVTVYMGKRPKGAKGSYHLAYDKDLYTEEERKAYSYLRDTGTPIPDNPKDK

cells [11] = assay type: functional
[12] = molecular target: T3, Ubiquitin-conjugating enzyme E2 N (Homo sapiens, UniProt P61088); assay type: functional;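 also: Dose-response confirmation in a TR-FRET assay detecting UBC13-driven polyubiquitin chain formation, inhibition measured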
T3 sequence (P61088 whole entry): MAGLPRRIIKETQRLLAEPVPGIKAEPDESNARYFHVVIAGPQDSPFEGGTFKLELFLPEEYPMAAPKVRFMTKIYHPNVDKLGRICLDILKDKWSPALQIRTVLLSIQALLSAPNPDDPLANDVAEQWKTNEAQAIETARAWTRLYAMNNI

[13] = Dd2 malaria parasite growth inhibition potency – SYBR Green, dry powder samples, dose response (AID 1159566); assay type: functional, cell-based;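 also: potency for growth inhibition with lower SYBR green DNA signal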
[14] = P. falciparum Dd2 growth inhibitors, dose response, SYBR Green, cherry-picked samples (AID 1159567); assay type: functional, cell-based
[15] = growth inhibition of PfATP4-mutant resistant parasites – NITD609-resistant line, SYBR Green, dry powder, dose response (AID 1159571); assay type: functional, cell-based;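 also: parasites synchronized at ring stage by sorbitol before testing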
[16] = growth inhibition of yeast DHODH-expressing 3D7 parasites – SYBR Green, dry powder samples, dose response (AID 1159570); assay type: functional, cell-based;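 also: parasite growth measured after 72 hours of compound exposure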
[17] = molecular target: T4, High affinity choline transporter 1 (Homo sapiens, UniProt Q9GZV3); experiment: human choline transporter blockers, potency – cell-based, 5-point CRC, membrane potential dye, dose response (AID 504840); assay type: functional
T4 sequence (Q9GZV3 whole entry): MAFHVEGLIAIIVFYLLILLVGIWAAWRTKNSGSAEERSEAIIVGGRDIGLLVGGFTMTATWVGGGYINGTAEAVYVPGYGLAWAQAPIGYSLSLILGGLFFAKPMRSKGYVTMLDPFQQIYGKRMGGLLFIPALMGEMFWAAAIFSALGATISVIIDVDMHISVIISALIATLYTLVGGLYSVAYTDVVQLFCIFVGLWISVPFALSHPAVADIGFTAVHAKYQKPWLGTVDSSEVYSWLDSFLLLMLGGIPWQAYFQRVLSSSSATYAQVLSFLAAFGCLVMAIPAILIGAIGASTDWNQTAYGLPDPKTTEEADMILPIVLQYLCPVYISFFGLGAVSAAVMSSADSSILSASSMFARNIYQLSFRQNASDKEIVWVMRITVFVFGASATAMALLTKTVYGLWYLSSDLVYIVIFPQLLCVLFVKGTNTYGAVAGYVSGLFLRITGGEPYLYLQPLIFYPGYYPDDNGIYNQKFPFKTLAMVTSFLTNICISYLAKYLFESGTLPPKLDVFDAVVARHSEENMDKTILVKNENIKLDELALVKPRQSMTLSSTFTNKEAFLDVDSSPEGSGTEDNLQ

[18] = blockers of bursicon-stimulated LGR2 cAMP reporter – cell-based, HEK293, CRE-luciferase reporter, cherry pick, set 2, dose response (AID 743343); assay type: functional;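 also: transfected cells were stimulated with diluted bursicon conditioned medium after compound addition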
[19] = blockade of melanocortin 4 receptor signaling – cell-based, plate reader, cherry pick, counter-screen for LGR2 antagonist project, dose response (AID 743444); assay type: functional;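 also: transfected HEK 293 cells stimulated with alpha-MSH peptide; potency of inhibitors of the alpha-MSH evoked signal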

## Cc1sc2ncnc(Sc3ccccc3C(=O)O)c2c1C
Cells [1]
  IC50: > 138 µM (inactive)
Major prion protein
  IC50: 0.908 µM (active)

## CCOc1ccc(C2C(C#N)=C(N)SC(N)=C2C#N)cc1OCC
Cells [1]
  IC50: > 138 µM (inactive)
Major prion protein
  IC50: 2.32 µM (active)

## CC(C)CCN1CCc2nc(-c3ccccc3)c3c(c2C1)COC(C)C3 (stereo not given)
Cytochrome P450 3A4
  AC50: 3.16 µM (inconclusive)

## Cc1ccc(CSc2nc3ccncc3n2CC(=O)Nc2cc(C)cc(C)c2)cc1
[2]
  EC50: 30.7 µM (active)
[3]
  EC50: 26.3 µM (active)

## CSc1ccc(C2C(C#N)=C(N)Oc3cc4c(cc32)OCO4)cc1 (stereo not given)
[2]
  EC50: 6.05 µM (active)
[3]
  EC50: 6.59 µM (active)

## O=C(c1ccccc1)N1CCN(c2ncnc3sc4c(c23)CCC4)CC1
[4]
  AC50: 4.14 µM (active)
[5]
  AC50: 48 µM (active)
[6]
  AC50: 41.4 µM (active)
[7]
  AC50: 28.7 µM (active)
[8]
  AC50: 4.25 µM (active)

## CCC1(C)Cc2ccccc2-c2nc(S)nc(O)c21 (stereo not given)
Cells [1]
  IC50: > 138 µM (inactive)

## FC(F)(F)c1cccc(Sc2nc(-c3ccccc3)nnc2C(F)(F)F)c1
Beta-galactosidase
  EC50: > 40 µM (inactive)
[9]
  IC50: 21.4 µM (not active)

## Cc1ccc(C)c(NC(=S)N/N=C2/CCCCc3ccccc32)c1
Beta-galactosidase
  EC50: > 40 µM (inactive)
[9]
  IC50: > 40 µM (not active)
Streptococcus
  EC50: > 150 µM (not active)
[10]
  EC50: 0.956 µM (active)
Streptokinase A
  EC50: > 150 µM (not active)

## O=C(COc1ccc(Cl)cc1)NNC(=O)c1ccccn1
Cells [11]
  IC50: 6.74 µM (active)
[12]
  IC50: > 20 µM (inactive)

## C/C=C/c1ccc2c(c1)[C@H]1[C@H](CCN1S(=O)(=O)c1ccccc1C)[C@@H](CO)N2
[13]
  AC50: 1.18 µM (active)
[14]
  AC50: 1.83 µM (active)
[15]
  AC50: 0.942 µM (active)
[16]
  AC50: 1.46 µM (active)

## Cc1ccccc1/C=C/C(=O)NCC(=O)N1CCC(N(C)C2CCCCC2C)CC1 (stereo not given)
[17]
  IC50: 14.5 µM (active)

## NC(=O)c1ccccc1 [BENZAMIDE]
Cytochrome P450 3A4
  AC50: 0.005 µM (inconclusive)

## Cc1cc(NC(=O)CSc2nc(-c3cccs3)nc3ccccc23)no1
Cells [1]
  IC50: 53.6 µM (inactive)
Major prion protein
  IC50: 2.15 µM (active)

## O=S(=O)(c1ccc2[nH]c(-c3ccccc3)nc2c1)N1CCN(c2ccc(Cl)cc2)CC1
[2]
  EC50: 5.15 µM (active)
[3]
  EC50: 4.83 µM (active)

## CCCCCC[C@H]1C(=O)O[C@H](C)[C@H](NC(=O)c2cccc(NC=O)c2O)C(=O)O[C@@H](C)[C@@H]1OC(=O)CC(C)C [ANTIMYCIN A]
Cytochrome P450 3A4
  AC50: 6.31 µM (inconclusive)

## CC1CCCCC1NC(=O)c1ccc(S(=O)(=O)NCC2CCCO2)cc1 (stereo not given)
[17]
  IC50: 12.3 µM (active)

## CNC(=O)Oc1cccc(-c2cn3cc(Cl)ccc3n2)c1
[18]
  AC50: 15.8 µM (active)
[19]
  AC50: 18.6 µM (active)

## Cc1ccc(C(=O)CNc2ccccc2C)cc1
Beta-galactosidase
  EC50: > 40 µM (inactive)
[9]
  IC50: 8.2 µM (active)
